From PMC7026418, “The kinase polypharmacology landscape of clinical PARP inhibitors” (Scientific Reports, 2020)
Read-outs that look alike come from different tables or passages of the source.

Legend:
Test in all cases: biochemical
Parameters in all cases: DiscoveRx KINOMEscan active site-directed competition binding; percent of control kinase bound to immobilised ligand
IRAK3 = biological target: T1, IRAK3 (Homo sapiens, UniProt Q9Y616)
T1 sequence (Q9Y616 1-596): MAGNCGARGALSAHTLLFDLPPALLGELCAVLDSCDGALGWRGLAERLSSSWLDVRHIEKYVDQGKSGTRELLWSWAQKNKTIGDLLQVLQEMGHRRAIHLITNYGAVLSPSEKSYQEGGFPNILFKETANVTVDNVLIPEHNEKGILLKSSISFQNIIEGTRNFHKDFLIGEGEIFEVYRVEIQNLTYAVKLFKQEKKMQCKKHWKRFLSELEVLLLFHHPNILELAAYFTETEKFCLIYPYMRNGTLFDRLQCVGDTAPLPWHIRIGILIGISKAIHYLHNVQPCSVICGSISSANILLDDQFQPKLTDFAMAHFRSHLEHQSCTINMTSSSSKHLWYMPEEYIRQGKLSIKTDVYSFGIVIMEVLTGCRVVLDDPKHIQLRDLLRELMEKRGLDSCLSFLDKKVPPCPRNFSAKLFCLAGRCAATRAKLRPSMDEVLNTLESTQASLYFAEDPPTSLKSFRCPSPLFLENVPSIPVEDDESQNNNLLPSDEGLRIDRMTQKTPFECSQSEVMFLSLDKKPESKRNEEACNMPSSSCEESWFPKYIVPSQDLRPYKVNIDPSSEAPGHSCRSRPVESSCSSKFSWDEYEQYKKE

FGFR4 = FGFR4 (Homo sapiens, UniProt P22455)
EGFR(L858R,T790M) = EGFR(L858R,T790M) (Homo sapiens, UniProt P00533, L858R/T790M)
ERK8 = biological target: T2, ERK8 (Homo sapiens, UniProt Q8TD08)
T2 construct: gene MAPK15
T2 sequence (Q8TD08 1-544): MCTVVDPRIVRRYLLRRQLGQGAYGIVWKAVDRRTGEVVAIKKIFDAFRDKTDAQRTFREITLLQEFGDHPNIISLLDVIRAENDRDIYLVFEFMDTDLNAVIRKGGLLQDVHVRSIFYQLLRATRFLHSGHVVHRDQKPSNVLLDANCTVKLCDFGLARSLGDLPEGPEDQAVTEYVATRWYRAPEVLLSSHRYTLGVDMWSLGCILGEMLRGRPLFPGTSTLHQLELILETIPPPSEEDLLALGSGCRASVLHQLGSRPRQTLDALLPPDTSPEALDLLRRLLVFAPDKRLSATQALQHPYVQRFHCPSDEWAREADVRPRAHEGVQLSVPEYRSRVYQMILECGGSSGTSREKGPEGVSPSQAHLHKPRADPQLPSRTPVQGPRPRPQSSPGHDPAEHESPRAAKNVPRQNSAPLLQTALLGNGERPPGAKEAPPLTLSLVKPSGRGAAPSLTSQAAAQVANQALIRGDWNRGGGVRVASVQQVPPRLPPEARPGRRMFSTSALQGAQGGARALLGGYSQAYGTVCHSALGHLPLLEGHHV

IKK-epsilon = biological target: T3, IKK-epsilon (Homo sapiens, UniProt Q14164)
T3 construct: gene IKBKE
T3 sequence (Q14164 1-716): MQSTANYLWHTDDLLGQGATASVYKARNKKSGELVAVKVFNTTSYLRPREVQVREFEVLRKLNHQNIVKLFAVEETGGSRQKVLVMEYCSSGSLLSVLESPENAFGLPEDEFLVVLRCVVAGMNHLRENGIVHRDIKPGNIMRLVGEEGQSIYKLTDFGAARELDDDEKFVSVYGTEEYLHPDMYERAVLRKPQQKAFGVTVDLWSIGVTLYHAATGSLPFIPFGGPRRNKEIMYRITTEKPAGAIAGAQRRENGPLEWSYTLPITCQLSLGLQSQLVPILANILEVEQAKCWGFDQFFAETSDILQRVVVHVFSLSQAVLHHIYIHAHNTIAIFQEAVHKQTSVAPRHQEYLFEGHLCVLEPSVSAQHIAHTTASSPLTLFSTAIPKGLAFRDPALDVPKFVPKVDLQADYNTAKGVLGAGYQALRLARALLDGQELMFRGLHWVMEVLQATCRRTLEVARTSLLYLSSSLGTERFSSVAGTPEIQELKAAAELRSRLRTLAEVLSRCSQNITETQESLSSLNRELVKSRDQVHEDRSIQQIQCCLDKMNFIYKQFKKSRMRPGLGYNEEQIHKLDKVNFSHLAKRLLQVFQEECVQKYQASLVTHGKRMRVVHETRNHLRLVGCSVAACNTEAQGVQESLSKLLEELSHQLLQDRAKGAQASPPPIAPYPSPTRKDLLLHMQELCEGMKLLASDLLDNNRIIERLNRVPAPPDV

MKK7 = biological target: T4, MKK7 (Homo sapiens, UniProt O14733)
T4 construct: gene MAP2K7
T4 sequence (O14733 1-419): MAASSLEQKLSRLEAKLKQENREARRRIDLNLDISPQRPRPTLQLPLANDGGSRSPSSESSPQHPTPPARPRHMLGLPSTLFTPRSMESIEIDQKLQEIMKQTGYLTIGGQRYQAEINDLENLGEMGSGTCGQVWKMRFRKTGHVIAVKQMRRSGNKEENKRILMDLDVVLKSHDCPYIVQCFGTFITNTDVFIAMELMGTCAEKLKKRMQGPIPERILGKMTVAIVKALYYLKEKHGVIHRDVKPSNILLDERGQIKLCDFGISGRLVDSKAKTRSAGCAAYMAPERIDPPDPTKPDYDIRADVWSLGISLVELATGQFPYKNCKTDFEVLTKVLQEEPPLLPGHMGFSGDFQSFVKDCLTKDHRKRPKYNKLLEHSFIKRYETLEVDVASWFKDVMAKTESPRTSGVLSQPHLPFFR

[1] = biological target: T5, RPS6KA4(Kin.Dom.2-C-terminal) (Homo sapiens, UniProt O75676)
T5 construct: Kin.Dom.2-C-terminal

[2] = read-out: Talazoparib (BMN 673) / %Ctrl @ 10000nM
[3] = read-out: Olaparib / %Ctrl @ 10000nM
[4] = read-out: Niraparib (MK-4827) / %Ctrl @ 10000nM
[5] = read-out: Rucaparib / %Ctrl @ 10000nM, binding competition, % of control

Chain of FGFR4 (P22455 whole entry): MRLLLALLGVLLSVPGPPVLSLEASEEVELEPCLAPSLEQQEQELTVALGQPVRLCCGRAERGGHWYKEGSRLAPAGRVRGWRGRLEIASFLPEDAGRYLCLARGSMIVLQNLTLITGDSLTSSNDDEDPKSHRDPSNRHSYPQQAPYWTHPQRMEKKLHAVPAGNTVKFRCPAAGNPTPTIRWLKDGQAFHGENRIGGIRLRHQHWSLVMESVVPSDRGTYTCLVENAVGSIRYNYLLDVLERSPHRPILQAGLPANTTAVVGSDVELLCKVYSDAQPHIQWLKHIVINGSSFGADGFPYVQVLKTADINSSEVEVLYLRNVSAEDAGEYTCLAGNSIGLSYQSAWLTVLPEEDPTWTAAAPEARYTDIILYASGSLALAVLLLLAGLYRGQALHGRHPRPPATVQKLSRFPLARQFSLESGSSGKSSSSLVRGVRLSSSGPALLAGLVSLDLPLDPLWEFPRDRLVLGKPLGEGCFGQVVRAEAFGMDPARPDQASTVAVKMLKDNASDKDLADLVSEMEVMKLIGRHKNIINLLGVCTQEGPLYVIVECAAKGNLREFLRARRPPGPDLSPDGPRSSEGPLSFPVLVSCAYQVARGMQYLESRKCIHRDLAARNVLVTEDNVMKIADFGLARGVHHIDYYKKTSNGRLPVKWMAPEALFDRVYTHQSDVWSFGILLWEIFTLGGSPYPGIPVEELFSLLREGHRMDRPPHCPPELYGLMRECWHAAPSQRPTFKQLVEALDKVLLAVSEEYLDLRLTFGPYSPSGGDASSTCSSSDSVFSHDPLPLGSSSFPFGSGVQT
T5 sequence (O75676 whole entry): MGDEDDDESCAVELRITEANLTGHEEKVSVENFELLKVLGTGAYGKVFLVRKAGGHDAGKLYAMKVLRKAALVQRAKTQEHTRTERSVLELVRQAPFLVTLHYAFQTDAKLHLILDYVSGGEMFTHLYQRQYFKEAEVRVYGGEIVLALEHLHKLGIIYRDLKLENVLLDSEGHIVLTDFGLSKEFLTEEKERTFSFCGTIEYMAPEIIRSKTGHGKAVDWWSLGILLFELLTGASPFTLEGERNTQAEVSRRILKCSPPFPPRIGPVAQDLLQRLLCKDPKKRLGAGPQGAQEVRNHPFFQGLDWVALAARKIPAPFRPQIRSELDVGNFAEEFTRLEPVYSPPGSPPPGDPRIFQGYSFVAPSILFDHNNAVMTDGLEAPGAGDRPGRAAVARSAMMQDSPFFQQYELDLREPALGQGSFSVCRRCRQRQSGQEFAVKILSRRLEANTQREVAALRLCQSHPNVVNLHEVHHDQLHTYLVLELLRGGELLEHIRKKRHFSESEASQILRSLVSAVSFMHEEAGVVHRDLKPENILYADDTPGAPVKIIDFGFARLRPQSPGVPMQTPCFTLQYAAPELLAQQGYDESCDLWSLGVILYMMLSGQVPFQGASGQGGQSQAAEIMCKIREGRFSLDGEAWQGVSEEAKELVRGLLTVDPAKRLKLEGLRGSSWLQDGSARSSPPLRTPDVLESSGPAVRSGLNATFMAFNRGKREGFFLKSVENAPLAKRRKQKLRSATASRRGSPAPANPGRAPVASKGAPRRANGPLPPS
Chain of EGFR(L858R,T790M) (P00533 whole entry T790M/L858R): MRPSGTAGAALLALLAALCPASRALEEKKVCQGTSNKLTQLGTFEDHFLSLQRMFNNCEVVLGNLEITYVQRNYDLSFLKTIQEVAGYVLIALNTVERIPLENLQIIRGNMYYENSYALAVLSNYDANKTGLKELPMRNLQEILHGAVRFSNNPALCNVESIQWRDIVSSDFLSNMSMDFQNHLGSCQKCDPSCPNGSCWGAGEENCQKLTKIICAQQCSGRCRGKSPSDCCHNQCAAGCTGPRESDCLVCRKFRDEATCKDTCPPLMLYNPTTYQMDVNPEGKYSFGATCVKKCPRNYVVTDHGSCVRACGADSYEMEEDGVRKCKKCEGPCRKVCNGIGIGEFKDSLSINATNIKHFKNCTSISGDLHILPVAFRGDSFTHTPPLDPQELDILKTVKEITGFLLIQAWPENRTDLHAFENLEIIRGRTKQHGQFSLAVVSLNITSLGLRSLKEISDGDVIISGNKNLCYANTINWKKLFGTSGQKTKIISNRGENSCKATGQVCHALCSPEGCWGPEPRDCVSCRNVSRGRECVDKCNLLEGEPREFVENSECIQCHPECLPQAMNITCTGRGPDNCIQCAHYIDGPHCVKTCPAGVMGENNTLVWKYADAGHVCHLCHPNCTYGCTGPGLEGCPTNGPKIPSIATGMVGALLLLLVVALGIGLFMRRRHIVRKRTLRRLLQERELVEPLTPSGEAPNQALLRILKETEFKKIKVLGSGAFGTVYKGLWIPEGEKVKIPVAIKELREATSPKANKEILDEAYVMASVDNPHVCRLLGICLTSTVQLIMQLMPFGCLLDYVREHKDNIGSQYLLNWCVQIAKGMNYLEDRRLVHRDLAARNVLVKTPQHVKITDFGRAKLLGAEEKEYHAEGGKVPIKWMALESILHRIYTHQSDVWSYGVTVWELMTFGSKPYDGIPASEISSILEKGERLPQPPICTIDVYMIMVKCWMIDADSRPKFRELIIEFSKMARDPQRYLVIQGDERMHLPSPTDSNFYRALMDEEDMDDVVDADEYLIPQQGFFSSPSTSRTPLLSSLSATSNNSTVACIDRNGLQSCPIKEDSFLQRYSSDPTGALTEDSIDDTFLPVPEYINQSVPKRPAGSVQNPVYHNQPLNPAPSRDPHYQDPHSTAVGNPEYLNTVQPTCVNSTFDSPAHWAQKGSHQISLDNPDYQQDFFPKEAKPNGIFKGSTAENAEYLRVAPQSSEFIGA

Q: What does the source list for `Cn1ncnc1[C@H]1c2n[nH]c(=O)c3cc(F)cc(c23)N[C@@H]1c1ccc(F)cc1` [Talazoparib]?
A: percent of control binding at 10 µM (IRAK3; [2]): 100%; percent of control binding at 10 µM (FGFR4; [2]): 100%; percent of control binding at 10 µM (EGFR(L858R,T790M); [2]): 100%; percent of control binding at 10 µM (ERK8; [2]): 88%; percent of control binding at 10 µM (IKK-epsilon; [2]): 90%; percent of control binding at 10 µM (MKK7; [2]): 100%; percent of control binding at 10 µM [1, 2]: 100%

Q: With `O=C(c1cc(Cc2n[nH]c(=O)c3ccccc23)ccc1F)N1CCN(C(=O)C2CC2)CC1` [Olaparib] as the compound, how does the percent of control binding at 10 µM (IRAK3; [3]) read?
A: 82%

Q: And the percent of control binding at 10 µM (FGFR4; [3])?
A: 82%

Q: And the percent of control binding at 10 µM (EGFR(L858R,T790M); [3])?
A: 93%

Q: What about the percent of control binding at 10 µM (ERK8; [3]) of the same compound?
A: 97%

Q: What about the percent of control binding at 10 µM (IKK-epsilon; [3]) of the same compound?
A: 70%

Q: What about the percent of control binding at 10 µM (MKK7; [3]) of the same compound?
A: 98%

Q: And the percent of control binding at 10 µM [1, 3]?
A: 92%

Q: For `NC(=O)c1cccc2cn(-c3ccc([C@@H]4CCCNC4)cc3)nc12` [Niraparib], which percent of control binding at 10 µM (IRAK3; [4]) is on record?
A: 90%

Q: What about the percent of control binding at 10 µM (FGFR4; [4]) of the same compound?
A: 94%

Q: And the percent of control binding at 10 µM (EGFR(L858R,T790M); [4])?
A: 100%

Q: And the percent of control binding at 10 µM (ERK8; [4])?
A: 61%

Q: What about the percent of control binding at 10 µM (IKK-epsilon; [4]) of the same compound?
A: 76%

Q: What about the percent of control binding at 10 µM (MKK7; [4]) of the same compound?
A: 100%

Q: What about the percent of control binding at 10 µM [1, 4] of the same compound?
A: 80%

Q: With `CNCc1ccc(-c2[nH]c3cc(F)cc4c3c2CCNC4=O)cc1` [Rucaparib] as the compound, how does the percent of control binding at 10 µM (IRAK3; [5]) read?
A: 86%

Q: What about the percent of control binding at 10 µM (FGFR4; [5]) of the same compound?
A: 91%

Q: What about the percent of control binding at 10 µM (EGFR(L858R,T790M); [5]) of the same compound?
A: 70%

Q: And the percent of control binding at 10 µM (ERK8; [5])?
A: 86%

Q: What about the percent of control binding at 10 µM (IKK-epsilon; [5]) of the same compound?
A: 73%

Q: And the percent of control binding at 10 µM (MKK7; [5])?
A: 100%

Q: What about the percent of control binding at 10 µM [1, 5] of the same compound?
A: 91%
